Results on five compounds are retold here after US8575193B2, “N-substituted tetrahydroisoquinoline/isoindoline hydroxamic acid compounds” (4SC AG, priority 2008, dated 2013).

Series [1] is described as follows: Cellular cytotoxicity assay (Alamar Blue/Resazurin), HeLa. In kind it is cell-based. The settings on record: human, HeLa cells, 72 hours incubation, Resazurin, read-out: HeLa Cytotoxicity [pIC50] (converted). How it is done: (§1) The anti-proliferative activity of the compounds as described herein, is evaluated with various solid and hematological cancer cell lines using the Alamar Blue (Resazurin) cell viability assay (O'Brien et al, Eur J Biochem 267, 5421-5426, 2000). Resazurin is reduced to the fluorescent resorufin by cellular dehydrogenase activity, correlating with viable, proliferating cells. Test compounds are dissolved as 20 mM solutions in dimethylsulfoxide (DMSO) and subsequently diluted in semi-logarithmic steps. The cancer cell lines are seeded into 96 well flat bottom plates at respective cell densities in a volume of 200 μl per well to allow continuous proliferation during the experiment. 24 hours after seeding 1 μl each of the compound dilutions is added into each well of the 96 well plate. Wells containing untreated control cells are filled with 200 μl DMEM medium containing 0.5% v:v DMSO. The cells are then incubated with the substances for 72 hours at 37° C. in a humidified atmosphere containing 5% carbon dioxide. To determine the viability of the cells, 20 μl of a Resazurin solution (Sigma; 90 mg/l) are added. After 4 hours incubation at 37° C. the fluorescence is measured at an extinction of 544 nm and an emission of 590 nm. For the calculation of the cell viability the emission value from untreated cells is set as 100% viability and the emission rates of treated cells are set in relation to the values of untreated cells. Viabilities are expressed as % values. The corresponding pIC50 values of the compounds for cytotoxic activity are determined from the concentration-effect curves by means of non-linear regression.
Background: Alamar Blue is a resazurin reagent that responds to reducing activity.

Series [2] has as its target T1, rHDAC3 (Homo sapiens, UniProt O15379).
T1 construct: FLAG; made in house; host or cells: baculovirus-infected Sf21 insect cells
Description: rHDAC3 enzymatic assay (recombinant FLAG-HDAC3). In kind it is biochemical. The settings on record: FLAG-HDAC3 from insect cells; 6 μM Ac-NH-GGK(Ac)-AMC, 2 h at 30° C.; read-out: rHDAC3 [pIC50] (converted). From the text: (§2) Human HDAC1 and HDAC6 fused with the FLAG epitope are stably expressed in HEK293 cells while human HDAC3 and HDAC8 fused with the FLAG epitope are overexpressed in baculo-virus infected insect (Sf21) cells. To ensure stability of FLAG-HDAC3 the SMRT protein is co-expressed in the corresponding insect cells. […] FLAG-HDAC3 and FLAG-HDAC8 are also purified by M2-agarose affinity chromatography after mass cultivation of the insect cells and cell lysis.
(§3) The HDAC enzyme activity assay is done as described by Wegener et al. (Chem. & Biol. 10, 61-68, 2003). Briefly 40 μl of a 1:100 dilution (=0.4 μl) nuclear HeLa extract (mixture of class I and II HDACs), 29 μl enzyme buffer (15 mM Tris HCl pH 8.1, 0.25 mM EDTA, 250 mM NaCl, 10% v:v glycerol) and 1 μl test compound are added to a well of a 96 well microtiter plate and reaction started by addition of 3 μl substrate (Ac-NH-GGK(Ac)-AMC; final concentration 25 μM and final volume […]). […] After incubation at room temperature for further 40 min, fluorescence is measured using a Wallac Victor 1420 multilabel counter (Ex 355 nm, Em 460 nm) for quantification of AMC (7-amino-4-methylcoumarin) generated by trypsine cleavage of the deacetylated peptide. […] The corresponding pIC50 values of the compounds for HDAC inhibitory activity are determined from the concentration-effect curves by means of non-linear regression (Graphpad Prism software).
(§4) The HDAC1, HDAC3 and HDAC6 enzymatic assays are done with slight modifications with recombinant FLAG-HDAC1 and FLAG-HDAC6 proteins isolated from HEK293 cell lysates or recombinant FLAG-HDAC3 isolated from insect cells, respectively. The HDAC8 enzymatic assay using recombinant FLAG-HDAC8 isolated from insect cells is done with a different substrate. About 4.5 ng/well FLAG-HDAC1 and 3.1 ng/well FLAG-HDAC6 (dependent on batches and specific activity) are incubated with 6 μM or 10 μM Ac-NH-GGK(Ac)-AMC substrate, respectively, for 3 h at 30° C. About 1.7 ng/well FLAG-HDAC3 is incubated with 6 μM Ac-NH-GGK(Ac)-AMC substrate for 2 h at 30° C., while approximately 130 ng/well FLAG-HDAC8 is incubated with 50 μM Ac-RHK(Ac)K(Ac)-AMC substrate for 3 h at 30° C. Termination of the reaction and all further steps are done as described for HeLa cell nuclear extracts as a source for HDAC enzymatic activity. The corresponding pIC50 values of the compounds for HDAC1, HDAC3, HDAC6 and HDAC8 inhibitory activity are determined from the concentration-effect curves by means of non-linear regression.

Series [3] is described as follows: Cellular cytotoxicity assay (Alamar Blue/Resazurin), A549. In kind it is cell-based. The conditions noted are these: human, A549 cells; A549, 72 hours incubation, Resazurin; read-out: A549 Cytotoxicity [pIC50] (converted). How it is done:
as §1

Series [4] has as its system nuclear HeLa extract (mixture of class I and II HDACs). Description: Fluorimetric HDAC activity assay with nuclear HeLa extract. In kind it is biochemical, human. The settings on record: nuclear HeLa extract inhibitory activity, substrate Ac-NH-GGK(Ac)-AMC 25 μM, 90 min at 30° C. How it is done: HDAC activity is isolated from nuclear HeLa extracts according to a method original described by Dignam et al. (Nucl. Acids Res. 11, pp 1475, 1983). Briefly, nuclei isolated from HeLa cells (CIL SA, Seneffe, Belgium) are resuspended in buffer C (20 mM Hepes pH 7.9, 25% v:v glycerol, 0.42M NaCl, 1.5 mM MgCl2, 0.2 mM EDTA, 0.5 mM PefaBloc and 0.5 mM DTT) and stirred for 30 min on ice. After centrifugation, the supernatant is dialysed against buffer D (40 mM Tris HCl pH 7.4, 100 mM KCl, 0.2 mM EDTA, 0.5 mM DTT and 25% v:v glycerol) for 5 h at 4° C. After dialysis and centrifugation, the supernatant is stored in aliquots at −80° C. and used for Western blot analysis as well as the enzymatic assay as described in the following.
The HDAC enzyme activity assay is done as described by Wegener et al. (Chem. & Biol. 10, 61-68, 2003). […] After incubation at room temperature for further 40 min, fluorescence is measured using a Wallac Victor 1420 multilabel counter (Ex 355 nm, Em 460 nm) for quantification of AMC (7-amino-4-methylcoumarin) generated by trypsine cleavage of the deacetylated peptide. […] The corresponding pIC50 values of the compounds for HDAC inhibitory activity are determined from the concentration-effect curves by means of non-linear regression (Graphpad Prism software).

The target of series [5] is T2, rHDAC1 (Homo sapiens, UniProt Q13547).
T2 construct: FLAG; made in house
T2 sequence (Q13547 whole entry): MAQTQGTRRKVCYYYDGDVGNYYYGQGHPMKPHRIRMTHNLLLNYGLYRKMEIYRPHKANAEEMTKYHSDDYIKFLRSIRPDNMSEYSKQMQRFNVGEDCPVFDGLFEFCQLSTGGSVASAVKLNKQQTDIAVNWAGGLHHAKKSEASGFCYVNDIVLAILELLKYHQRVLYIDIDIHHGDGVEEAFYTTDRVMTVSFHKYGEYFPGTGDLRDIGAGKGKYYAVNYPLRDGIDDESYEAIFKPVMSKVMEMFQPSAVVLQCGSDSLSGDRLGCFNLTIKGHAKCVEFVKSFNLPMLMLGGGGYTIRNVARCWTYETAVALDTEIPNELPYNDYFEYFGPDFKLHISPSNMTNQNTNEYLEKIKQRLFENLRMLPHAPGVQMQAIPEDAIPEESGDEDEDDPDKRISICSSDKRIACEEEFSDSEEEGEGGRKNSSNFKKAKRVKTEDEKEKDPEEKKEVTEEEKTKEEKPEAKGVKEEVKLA
The experiment in a line: rHDAC1 enzymatic assay (recombinant FLAG-HDAC1). In kind it is biochemical. The settings on record: FLAG-HDAC1 from HEK293; 6 μM Ac-NH-GGK(Ac)-AMC, 3 h at 30° C.; read-out: rHDAC1 [pIC50] (converted).
Text: as §2, §3, §4

The nature of series [6]: Cellular cytotoxicity assay (Alamar Blue/Resazurin), RKOp21. In kind it is cell-based. The conditions noted are these: human, RKOp21 cells; RKOp21, 72 hours incubation, Resazurin; read-out: RKOp21 Cytotoxicity [pIC50] (converted). How it is done:
as §1

T1 sequence (O15379 whole entry): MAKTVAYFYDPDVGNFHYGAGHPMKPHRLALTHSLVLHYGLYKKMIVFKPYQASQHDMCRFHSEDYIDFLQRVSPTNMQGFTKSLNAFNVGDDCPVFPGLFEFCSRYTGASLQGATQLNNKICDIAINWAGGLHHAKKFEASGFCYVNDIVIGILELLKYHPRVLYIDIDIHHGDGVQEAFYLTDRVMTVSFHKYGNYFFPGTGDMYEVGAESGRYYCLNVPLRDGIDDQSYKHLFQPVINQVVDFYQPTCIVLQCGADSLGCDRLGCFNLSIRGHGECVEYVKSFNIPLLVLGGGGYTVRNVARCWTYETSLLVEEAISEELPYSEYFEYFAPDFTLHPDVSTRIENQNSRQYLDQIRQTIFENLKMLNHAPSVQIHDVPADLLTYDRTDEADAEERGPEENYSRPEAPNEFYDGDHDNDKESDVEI
T1 sequence (Q9Y618 whole entry partner): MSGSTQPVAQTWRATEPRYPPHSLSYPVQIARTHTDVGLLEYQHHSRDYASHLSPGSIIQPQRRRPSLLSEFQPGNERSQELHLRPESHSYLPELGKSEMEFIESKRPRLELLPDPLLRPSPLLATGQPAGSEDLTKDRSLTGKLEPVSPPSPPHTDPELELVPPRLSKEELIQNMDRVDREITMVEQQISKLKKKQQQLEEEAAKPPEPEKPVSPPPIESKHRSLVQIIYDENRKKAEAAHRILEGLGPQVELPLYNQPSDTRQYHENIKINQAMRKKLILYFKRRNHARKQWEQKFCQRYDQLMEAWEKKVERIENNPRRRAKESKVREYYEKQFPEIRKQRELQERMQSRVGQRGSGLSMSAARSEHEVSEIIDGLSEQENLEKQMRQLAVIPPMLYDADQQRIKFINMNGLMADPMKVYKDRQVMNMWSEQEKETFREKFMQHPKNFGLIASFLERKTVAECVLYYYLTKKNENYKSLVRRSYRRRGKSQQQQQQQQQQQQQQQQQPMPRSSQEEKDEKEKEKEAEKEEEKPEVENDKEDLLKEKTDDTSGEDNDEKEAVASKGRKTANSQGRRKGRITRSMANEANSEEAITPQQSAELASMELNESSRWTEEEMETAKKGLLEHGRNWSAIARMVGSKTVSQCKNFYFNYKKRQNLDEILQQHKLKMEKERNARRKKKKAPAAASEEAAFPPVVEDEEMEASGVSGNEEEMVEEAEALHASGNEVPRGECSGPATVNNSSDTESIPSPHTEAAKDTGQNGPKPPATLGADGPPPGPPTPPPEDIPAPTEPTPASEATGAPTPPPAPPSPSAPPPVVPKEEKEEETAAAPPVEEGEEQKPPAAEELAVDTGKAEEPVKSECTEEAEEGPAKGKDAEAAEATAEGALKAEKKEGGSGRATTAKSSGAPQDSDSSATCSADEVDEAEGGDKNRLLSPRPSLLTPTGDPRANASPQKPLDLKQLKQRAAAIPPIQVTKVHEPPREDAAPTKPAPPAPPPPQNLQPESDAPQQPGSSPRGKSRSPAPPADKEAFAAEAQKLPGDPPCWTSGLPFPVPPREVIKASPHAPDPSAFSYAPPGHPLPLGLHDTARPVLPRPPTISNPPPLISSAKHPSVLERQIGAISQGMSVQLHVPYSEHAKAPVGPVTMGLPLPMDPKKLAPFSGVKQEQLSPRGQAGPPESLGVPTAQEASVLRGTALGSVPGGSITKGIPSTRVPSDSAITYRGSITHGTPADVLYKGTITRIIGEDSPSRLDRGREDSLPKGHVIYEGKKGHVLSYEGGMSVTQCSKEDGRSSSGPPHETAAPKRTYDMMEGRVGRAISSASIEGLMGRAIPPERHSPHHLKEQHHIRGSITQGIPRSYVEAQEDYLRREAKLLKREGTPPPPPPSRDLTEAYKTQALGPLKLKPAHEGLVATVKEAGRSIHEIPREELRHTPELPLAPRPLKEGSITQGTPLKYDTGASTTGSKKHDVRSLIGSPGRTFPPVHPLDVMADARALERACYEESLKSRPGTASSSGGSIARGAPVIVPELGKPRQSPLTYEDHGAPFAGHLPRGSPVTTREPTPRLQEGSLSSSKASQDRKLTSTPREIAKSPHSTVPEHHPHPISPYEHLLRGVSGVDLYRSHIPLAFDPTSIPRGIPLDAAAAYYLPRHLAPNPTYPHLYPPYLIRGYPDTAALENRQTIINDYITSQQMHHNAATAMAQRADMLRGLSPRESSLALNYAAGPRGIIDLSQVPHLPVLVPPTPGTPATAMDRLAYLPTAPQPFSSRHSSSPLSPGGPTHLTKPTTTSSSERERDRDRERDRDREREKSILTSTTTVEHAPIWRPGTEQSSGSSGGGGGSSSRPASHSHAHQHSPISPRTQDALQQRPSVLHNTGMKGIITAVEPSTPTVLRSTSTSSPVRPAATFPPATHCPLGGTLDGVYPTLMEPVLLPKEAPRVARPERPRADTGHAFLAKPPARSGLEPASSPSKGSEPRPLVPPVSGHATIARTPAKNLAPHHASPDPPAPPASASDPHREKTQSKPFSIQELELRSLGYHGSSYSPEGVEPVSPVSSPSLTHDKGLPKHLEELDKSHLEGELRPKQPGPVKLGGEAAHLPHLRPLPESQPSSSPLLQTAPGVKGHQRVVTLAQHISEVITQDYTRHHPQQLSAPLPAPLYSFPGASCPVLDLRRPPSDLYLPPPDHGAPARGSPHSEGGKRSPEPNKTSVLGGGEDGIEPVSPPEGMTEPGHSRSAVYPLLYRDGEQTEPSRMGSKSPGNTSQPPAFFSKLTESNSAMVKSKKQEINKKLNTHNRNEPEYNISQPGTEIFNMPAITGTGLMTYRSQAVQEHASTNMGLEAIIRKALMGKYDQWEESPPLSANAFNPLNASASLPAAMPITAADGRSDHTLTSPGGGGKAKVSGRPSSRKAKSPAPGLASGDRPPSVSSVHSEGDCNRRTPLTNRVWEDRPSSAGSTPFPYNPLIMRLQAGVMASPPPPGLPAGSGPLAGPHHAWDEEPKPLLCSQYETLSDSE

With `COCCOCC(=O)N1CCc2cc(C(=O)NO)ccc2C1` [Example 11, N-Hydroxy-2-[(2-methoxyethoxy)acetyl]-1,2,3,4-tetrahydroisoquinoline-6-carboxamide], the IC50 at 72 h in series [1] and in series [3] was greater than 100 µM throughout. The IC50 in series [2] and in series [5] was 10 to 100 µM each time. For the same compound, the “HeLa nuclear extract [pIC50]” value in series [4] (listed as Ex. 11) came out at 4.22.
One may read the melting point as the temperature, or range, at which the solid turns liquid. On to `COc1ccc2[nH]c(C(=O)N3CCc4cc(C(=O)NO)ccc4C3)cc2c1` [Example 15, N-Hydroxy-2-[(5-methoxy-1H-indol-2-yl)carbonyl]-1,2,3,4-tetrahydroisoquinoline-6-carboxamide], for which the melting point is 156 °C. Moreover, the IC50 at 72 h in series [1] was 1 to 100 µM. Further, the IC50 in series [2] is 1 to 10 µM. In addition, the IC50 at 72 h in series [3] was 1 to 100 µM. Further, in series [4] (listed as Ex. 15), the “HeLa nuclear extract [pIC50]” value was 6.10. Besides, the IC50 in series [5] is 0.1 to 10 µM.
In turn, `O=C(NO)c1ccc2c(c1)CCN(C(=O)C1CC1)C2` [Example 16, N-Hydroxy-2-(cyclopropylcarbonyl)-1,2,3,4-tetrahydroisoquinoline-6-carboxamide] had a melting point of 90 °C. For the same compound, the IC50 at 72 h in series [1] is greater than 100 µM. Moreover, the IC50 in series [2] was 10 to 100 µM. For the same compound, in series [3], the IC50 at 72 h was greater than 100 µM. The IC50 in series [5] is 0.1 to 10 µM.
As for `O=C(NO)c1ccc2c(c1)CN(C(=O)C1CCOC1)CC2` (centres unmarked) [Example 20, N-Hydroxy-2-(tetrahydrofuran-3-ylcarbonyl)-1,2,3,4-tetrahydroisoquinoline-7-carboxamide], the IC50 at 72 h in series [1], in series [3] and in series [6] was greater than 100 µM throughout. Further, the IC50 in series [2] is 10 to 100 µM; in series [5], 0.1 to 10 µM.
Consider `COc1ccc2[nH]c(C(=O)N3CCc4ccc(C(=O)NO)cc4C3)cc2c1` [Example 24, N-Hydroxy-2-[(5-methoxy-1H-indol-2-yl)carbonyl]-1,2,3,4-tetrahydroisoquinoline-7-carboxamide], for which the IC50 at 72 h in series [1], in series [3] and in series [6] was 1 to 100 µM each time. Also, the IC50 in series [2] is 1 to 10 µM; in series [5], 0.1 to 10 µM.
